Laboratory results reported in patent publication US20140287120A1, “ORGANIC COMPOUNDS” (Givaudan S.A, priority 2011, published 2014).

Test: Taste panel: intensity of umami and salt taste of solution B compared with reference solution A
Conditions: 10 ppm in a solution of 0.5% NaCl and 0.03% MSG, compared with solution A without compound; average rating of 4 flavourists; scale -3 (much lower than base) to 3 (much higher than base), 0 = same as base, 1 = slightly higher than base
Protocol: Two solutions were prepared:
A a solution of 0.5% NaCl and 0.03% MSG
B a solution of 0.5% NaCl and 0.03% MSG and 10 ppm Example 1 compound
The samples were tasted by a small group of flavourists (2 male, 2 female, aged between 30 and 60). The intensity of the umami and salt taste of solution B was compared with that of the reference (solution A) and rated according to the following intensity scale:
Taste effect much lower than base: −3
Taste effect lower than base: −2
Taste effect slightly lower than base: −1
Taste effect same as base: 0
Taste effect slightly higher than base: 1
Taste effect higher than base: 2
Taste effect much higher than base: 3
The results (average of rating given by the flavourists) were: […]

## CC(N)(CCC(=O)O)C(=O)O (racemic) [DL-2-methylglutamic acid, DL-2-Methylglutamic Acid]
  Intensity Taste Salt (NaCl): 1.00
  Intensity Taste Umami: 0.00
